# Patent publication US9896447B2, “TrkA kinase inhibitors, compositions and methods thereof” (MERCK SHARP & DOHME CORP., priority 2013, dated 2018)
# Target: TrkA receptor (Homo sapiens (Human), UniProt P04629)
# Assay: DiscoverX PathHunter TrkA functional assay (U2OS cells, NGF stimulated)
# Type: cell-based
# Conditions: U2OS cells expressing TrkA-Prolink and Shc1-EA; compound 1 hour, then EC80 of NGF for 3 hours; luminescence
# Procedure: TrkA functional activity was measured using a DiscoverX PathHunter assay. In this assay, U2OS cells are express TrkA receptor as a fusion with the weakly complementing fragment of B-galactosidase, which DiscoverX calls “Prolink (PK)”; additionally, Shc1 is fused with a larger fragment, which is called “Enzyme Acceptor (EA)”. Activation of the TrkA receptor, upon NGF addition, results in the kinase domain being phosphorylated, resulting in subsequent recruitment of Shc1-EA protein. That recruitment results in an active B-galactosidase enzyme that is detected by addition of a chemiluminescent substrate.
# All reagents were purchased from DiscoverX, except for the receptor agonists (NGF, BDNF, NT3) which were purchased from Peprotech. Cells were expanded and frozen into cryovials (TrkA p75 @ passage 13, 1.5×10^7 cells/vial; TrkC p75 @ passage 11, 1.5×10^7 cells/vial in InVitrogen Recovery Cell Freezing media), and stored in the vapor phase of liquid nitrogen, and thawed immediately before use. Thawed cells were added to a 384-well plate (BD Falcon 384-well white/clear, TC surface 120 uL assay plates (353963), 20 uL of 0.375e6 cells/mL=>7500 cells/well), and allowed to incubate overnight. Compound (10 mM starting dose: 202.5 nL compound yielding 0.81% DMSO final in total assay volume and starting doses 81 uM) was added the following morning and allowed to incubate on cells for 1 hour. Then, 5 uL EC80 of agonist (NGF for TrkA; BDNF for TrkB; NT3 for TrkC) was added and allowed to incubate for 3 hours at room temperature. DiscoverX PathHunter detection reagent is added (12 uL to plate and components diluted in parts as per kit instructions) and the plate is further incubated for 1 hour in the dark. The plate is read via luminescence on the Perkin Elmer Envision.
# Sequence of TrkA receptor (P04629 33-796): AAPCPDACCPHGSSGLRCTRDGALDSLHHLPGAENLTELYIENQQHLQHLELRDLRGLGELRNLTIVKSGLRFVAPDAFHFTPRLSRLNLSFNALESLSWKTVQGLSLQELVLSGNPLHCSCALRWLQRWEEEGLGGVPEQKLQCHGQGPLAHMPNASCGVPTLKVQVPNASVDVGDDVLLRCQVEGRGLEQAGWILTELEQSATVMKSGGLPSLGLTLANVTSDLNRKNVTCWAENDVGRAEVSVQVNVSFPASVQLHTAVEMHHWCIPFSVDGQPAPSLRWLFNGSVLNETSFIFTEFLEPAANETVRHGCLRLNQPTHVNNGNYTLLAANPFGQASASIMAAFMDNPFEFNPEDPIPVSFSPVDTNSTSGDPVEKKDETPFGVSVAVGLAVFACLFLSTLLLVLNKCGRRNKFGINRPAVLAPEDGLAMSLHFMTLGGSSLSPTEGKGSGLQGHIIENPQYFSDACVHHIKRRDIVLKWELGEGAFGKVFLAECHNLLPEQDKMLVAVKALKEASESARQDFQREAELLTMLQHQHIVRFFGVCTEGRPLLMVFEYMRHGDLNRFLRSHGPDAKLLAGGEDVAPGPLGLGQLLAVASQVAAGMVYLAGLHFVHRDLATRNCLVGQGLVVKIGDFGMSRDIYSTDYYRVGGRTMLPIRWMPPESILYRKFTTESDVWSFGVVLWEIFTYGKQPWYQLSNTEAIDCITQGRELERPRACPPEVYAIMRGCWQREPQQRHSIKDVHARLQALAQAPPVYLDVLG
row,SMILES,IC50
1,"Cc1cc(NC(=O)Nc2cc(C)nn2-c2ccccc2)n(-c2ccccc2)n1 [Compound 3, 1,3-bis(3-methyl-1-phenyl-1H-pyrazol-5-yl)urea]",2700 nM
2,"Cc1cc(NC(=O)Nc2cccc(Br)n2)n(-c2ccccc2)n1 [Compound 5, 1-(6-bromopyridin-2-yl)-3-(3-methyl-1-phenyl-1H-pyrazol-5-yl)urea]",4800 nM
3,"Cc1cc(NC(=O)Nc2cccc(C)c2C)n(-c2ccccc2)n1 [Compound 7, 1-(2,3-dimethylphenyl)-3-(3-methyl-1-phenyl-1H-pyrazol-5-yl)urea]",4800 nM
4,"Cc1cc(NC(=O)Nc2cc(Br)ccn2)n(-c2ccccc2)n1 [Compound 8, 1-(4-bromopyridin-2-yl)-3-(3-methyl-1-phenyl-1H-pyrazol-5-yl)urea]",3000 nM
5,"Cc1cc(NC(=O)Nc2ccccn2)n(-c2ccccc2)n1 [Compound 10, 1-(3-methyl-1-phenyl-1H-pyrazol-5-yl)-3-pyridin-2-ylurea]",1800 nM
6,"COc1ccc(NC(=O)Nc2cc(C)nn2-c2ccccc2)nc1 [Compound 11, 1-(5-methoxypyridin-2-yl)-3-(3-methyl-1-phenyl-1H-pyrazol-5-yl)urea]",3400 nM
7,"Cc1ccc(NC(=O)Nc2ccccn2)c(-c2ccccc2)n1 [Compound 12, 1-(6-methyl-2-phenylpyridin-3-yl)-3-pyridin-2-ylurea]",1100 nM
8,"Cc1ncc(NC(=O)Nc2ccccc2-c2ccccc2)c(-c2ccccc2)n1 [Compound 13, 1-biphenyl-2-yl-3-(2-methyl-4-phenylpyrimidin-5-yl)urea]",2300 nM
9,"Cc1onc(-c2ccccc2)c1NC(=O)NCc1ccccc1C(F)(F)F [Compound 14, 1-(5-methyl-3-phenylisoxazol-4-yl)-3-[2-(trifluoromethyl)benzyl]urea]",350 nM
10,"Cc1ncc(NC(=O)Nc2cccc3ccccc23)c(-c2ccccc2)n1 [Compound 15, 1-(2-methyl-4-phenylpyrimidin-5-yl)-3-naphthalen-1-ylurea]",4100 nM
11,"Cc1ncc(NC(=O)Nc2cnc(C)nc2-c2ccccc2)c(-c2ccccc2)n1 [Compound 17, 1,3-bis(2-methyl-4-phenylpyrimidin-5-yl)urea]",1400 nM
12,"Cc1ncc(NC(=O)Nc2ccccn2)c(-c2ccccc2)n1 [Compound 20, 1-(2-methyl-4-phenylpyrimidin-5-yl)-3-pyridin-2-ylurea]",4000 nM
13,"O=C(Nc1ccc(C(F)(F)F)cc1Cl)Nc1c(-c2ccccc2)nc2ccccn12 [Compound 22, 1-[2-chloro-4-(trifluoromethyl)phenyl]-3-(2-phenylimidazo[1,2-a]pyridin-3-yl)urea]",4200 nM
14,"O=C(Nc1ccc(C(F)(F)F)cc1)Nc1c(-c2ccccc2)nc2ccccn12 [Compound 23, 1-(2-phenylimidazo[1,2-a]pyridin-3-yl)-3-[4-(trifluoromethyl)phenyl]urea]",4300 nM
15,"Cn1ccnc1-c1cccc(NC(=O)Nc2c(-c3ccccc3)nc3ccccn23)c1 [Compound 27, 1-[3-(1-methyl-1H-imidazol-2-yl)phenyl]-3-(2-phenylimidazo[1,2-a]pyridin-3-yl)urea]",1600 nM
16,"O=C(Nc1c(-c2ccccc2)nc2ccccn12)Nc1c(-n2cccn2)nc2ccccn12 [Compound 29, 1-(2-phenylimidazo[1,2-a]pyridin-3-yl)-3-[2-(1H-pyrazol-1-yl)imidazo[1,2-a]pyridin-3-yl]urea]",1400 nM
17,"O=C(Nc1c(-c2ccccc2)nc2ccccn12)Nc1c(-c2ccccc2)nc2ncccn12 [Compound 30, 1-(2-phenylimidazo[1,2-a]pyridin-3-yl)-3-(2-phenylimidazo[1,2-a]pyrimidin-3-yl)urea]",1500 nM
18,"Cc1nc(-c2ccccc2)c(NC(=O)Nc2c(-c3ccccc3)ncn2C)s1 [Compound 33, 1-(1-methyl-4-phenyl-1H-imidazol-5-yl)-3-(2-methyl-4-phenyl-1,3-thiazol-5-yl)urea]",4000 nM
19,"Cc1nc(-c2ccccc2)c(NC(=O)Nc2c(-c3ccccc3)nc(C)n2C)s1 [Compound 34, 1-(1,2-dimethyl-4-phenyl-1H-imidazol-5-yl)-3-(2-methyl-4-phenyl-1,3-thiazol-5-yl)urea]",4100 nM
20,"Cc1ncc(NC(=O)Nc2sc(C)nc2-c2ccccc2)c(-c2ccccc2)n1 [Compound 36, 1-(2-methyl-4-phenylpyrimidin-5-yl)-3-(2-methyl-4-phenyl-1,3-thiazol-5-yl)urea]",2300 nM
21,"Cc1nc(-c2ccccc2)c(NC(=O)Nc2cccnc2-c2ccccc2)s1 [Compound 37, 1-(2-methyl-4-phenyl-1,3-thiazol-5-yl)-3-(2-phenylpyridin-3-yl)urea]",1800 nM
22,"O=C(NCc1cc(F)ccc1C(F)(F)F)Nc1ccnn1-c1ccccc1 [Compound 38, 1-[5-fluoro-2-(trifluoromethyl)benzyl]-3-(1-phenyl-1H-pyrazol-5-yl)urea]",1100 nM
23,"O=C(NCc1ccc(F)cc1C(F)(F)F)Nc1ccnn1-c1ccccc1 [Compound 39, 1-[4-fluoro-2-(trifluoromethyl)benzyl]-3-(1-phenyl-1H-pyrazol-5-yl)urea]",1400 nM
24,"Cc1ncc(NC(=O)N[C@@H](C)C2CCCCC2)c(-c2ccccc2)n1 [Compound 41, 1-[(1S)-1-cyclohexylethyl]-3-(2-methyl-4-phenylpyrimidin-5-yl)urea]",2100 nM

# Further lines, results first:
row,IC50,SMILES
1,82 nM,"O=C(Nc1c(-c2ccccc2)nc2ccccn12)Nc1c(-c2ccccc2)nc2ccccn12 [Compound 1, 1,3-bis(2-phenylimidazo[1,2-a]pyridin-3-yl)urea]"
2,160 nM,"O=C(Nc1ccccn1)Nc1cc(-c2ccccc2)nn1-c1ccccc1 [Compound 2, 1-(1,3-diphenyl-1H-pyrazol-5-yl)-3-pyridin-2-ylurea]"
3,590 nM,"Cc1cc(NC(=O)Nc2cccc3ccccc23)n(-c2ccccc2)n1 [Compound 4, 1-(3-methyl-1-phenyl-1H-pyrazol-5-yl)-3-naphthalen-1-ylurea]"
4,420 nM,"Cc1cc(NC(=O)Nc2ccccc2-c2ccccc2)n(-c2ccccc2)n1 [Compound 6, 1-biphenyl-2-yl-3-(3-methyl-1-phenyl-1H-pyrazol-5-yl)urea]"
5,350 nM,"O=C(Nc1ccccn1)Nc1cc(-c2ccncc2)nn1-c1ccccc1 [Compound 9, 1-(1-phenyl-3-pyridin-4-yl-1H-pyrazol-5-yl)-3-pyridin-2-ylurea]"
6,290 nM,"O=C(Nc1cccc2ccccc12)Nc1c(-c2ccccc2)nc2sccn12 [Compound 16, 1-naphthalen-1-yl-3-(6-phenylimidazo[2,1-b][1,3]thiazol-5-yl)urea]"
7,280 nM,"CSc1ncc(NC(=O)Nc2cnc(SC)nc2-c2ccccc2)c(-c2ccccc2)n1 [Compound 18, 1,3-bis[2-(methylsulfanyl)-4-phenylpyrimidin-5-yl]urea]"
8,150 nM,"Cc1ncc(NC(=O)Nc2c(-c3ccccc3)nc3ccccn23)c(-c2ccccc2)n1 [Compound 21, 1-(2-methyl-4-phenylpyrimidin-5-yl)-3-(2-phenylimidazo[1,2-a]pyridin-3-yl)urea]"
9,450 nM,"O=C(Nc1cccnc1-c1ccccc1)Nc1c(-c2ccccc2)nc2ccccn12 [Compound 24, 1-(2-phenylimidazo[1,2-a]pyridin-3-yl)-3-(2-phenylpyridin-3-yl)urea]"
10,520 nM,"Cc1cc(NC(=O)Nc2c(-c3ccccc3)nc3ccccn23)n(-c2ccccc2)n1 [Compound 25, 1-(3-methyl-1-phenyl-1H-pyrazol-5-yl)-3-(2-phenylimidazo[1,2-a]pyridin-3-yl)urea]"
11,48 nM,"Cc1nc(-c2ccccc2)c(NC(=O)Nc2c(-c3ccccc3)nc3ccccn23)s1 [Compound 26, 1-(2-methyl-4-phenyl-1,3-thiazol-5-yl)-3-(2-phenylimidazo[1,2-a]pyridin-3-yl)urea]"
12,460 nM,"CCOC(=O)c1nc2ccccn2c1NC(=O)Nc1c(-c2ccccc2)nc2ccccn12 [Compound 28, ethyl 3-{[(2-phenylimidazo[1,2-a]pyridin-3-yl)carbamoyl]amino} imidazo[1,2-a]pyridine-2-carboxylate]"
13,1000 nM,"O=C(Nc1c(-c2ccccc2)nc2ccccn12)Nc1c(-c2ccccc2)nc2ccc(Cl)nn12 [Compound 31, 1-(6-chloro-2-phenylimidazo[1,2-b]pyridazin-3-yl)-3-(2-phenylimidazo[1,2-a]pyridin-3-yl)urea]"
14,1000 nM,"CNC(=O)c1nc2ccccn2c1NC(=O)Nc1c(-c2ccccc2)nc2ccccn12 [Compound 32, N-methyl-3-{[(2-phenylimidazo[1,2-a]pyridin-3-yl)carbamoyl]amino}imidazo[1,2-a]pyridine-2-carboxamide]"
15,610 nM,"Cc1nc(-c2ccccc2)c(NC(=O)Nc2sc(C)nc2-c2ccccc2)s1 [Compound 35, 1,3-bis(2-methyl-4-phenyl-1,3-thiazol-5-yl)urea]"
16,680 nM,"Cc1ncc(NC(=O)NCc2ccccc2SC(F)(F)F)c(-c2ccccc2)n1 [Compound 40, 1-(2-methyl-4-phenylpyrimidin-5-yl)-3-{2-[(trifluoromethyl)sulfanyl]benzyl}urea]"
